Measurements: publication PMC4357247, “Novel agonists for serotonin 5-HT7 receptors reverse metabotropic glutamate receptor-mediated long-term depression in the hippocampus of wild-type and Fmr1 KO mice, a model of Fragile X Syndrome” (Frontiers in Behavioral Neuroscience, 2015)
Where “and” joins values, the source holds several entries; their conditions need not be identical. Equal values may be shown once.

Tests used:
[1] = tested on: mGluR-LTD in CA1 pyramidal neurons of hippocampal slices (native 5-HT7 receptors); test: Patch clamp: reversal of DHPG-induced mGluR-LTD of EPSCs in CA1 pyramidal neurons, hippocampal slices from wild-type mice; type: cell-based; conditions: 5 min, measured 45 min after DHPG; for EPSC amplitude: compound 10 nM
Method: (§1) Patch clamp experiments were performed on mouse hippocampal slices from wild-type (wt) mice (FVB and C57BL/6J background) and Fmr1 KO2 mice (C57BL/6J background, kindly provided by Prof. Willemsen, Erasmus MC, Rotterdam, The Netherlands). […] Every care was taken to maximally reduce the number of animals and to minimize discomfort.
(§2) Acute hippocampal slices ([…]) were cut with a vibratome (Leica VT 1200). Slices were continually perfused with oxygenated ACSF. After 3 h of recovery, one slice was placed in the recording chamber of a patch camp set up and viewed with infrared microscopy (Leica DMLFS). A tungsten electrode was placed in the stratum radiatum to stimulate Schaffer collaterals with negative current pulses (duration 0.3 ms, delivered every 15 s by A310 Accupulser, WPI, USA). Evoked AMPA receptor-mediated excitatory post-synaptic currents (EPSCs) were recorded from CA1 pyramidal neurons under whole-cell patch clamp (holding potential -70 mV; EPC7-plus amplifier HEKA, Germany). Stimulation intensity was set to induce half-maximal EPSC amplitude. Series resistance (Rs) was monitored throughout the recording by means of 10 mV hyperpolarizing pulses; recordings were discarded from analysis if Rs changed by more than 20%. EPSC traces were filtered at 3 kHz and digitized at 10 kHz. Data were acquired and analyzed using Signal software (CED, England). The recording micropipette (resistance 1.5–3 MΩ) was filled with intracellular solution (in mM: K-gluconate 140; HEPES 10; NaCl 10; MgCl2 2; EGTA 0.2; Mg-ATP 3.5; Na-GTP 1; pH 7.3).
(§3) Cumulative histograms indicate % EPSC amplitude (mean ± SEM from groups of neurons) after application of DHPG alone (control LTD) or DHPG followed by a 5-HT7 receptor agonist. EPSC amplitude values from two groups of neurons were compared using the Student's t-test, with n indicating the number of neurons tested in each condition.

[2] = tested on: mGluR-LTD in CA1 pyramidal neurons of hippocampal slices (native 5-HT7 receptors); test: Patch clamp: reversal of DHPG-induced mGluR-LTD of EPSCs in CA1 pyramidal neurons, hippocampal slices from Fmr1 KO mice; type: cell-based; conditions: Fmr1 KO (C57BL6J) slices, 5 min; for EPSC amplitude: compound 10 nM, applied after DHPG (100 μM, 5 min)
Method: as §1, §2, §3

5-HT1A receptors = molecular target: T1, 5-HT1A receptors (Homo sapiens, UniProt P08908); test: Binding affinity for 5-HT1A receptors
T1 sequence (P08908 1-422): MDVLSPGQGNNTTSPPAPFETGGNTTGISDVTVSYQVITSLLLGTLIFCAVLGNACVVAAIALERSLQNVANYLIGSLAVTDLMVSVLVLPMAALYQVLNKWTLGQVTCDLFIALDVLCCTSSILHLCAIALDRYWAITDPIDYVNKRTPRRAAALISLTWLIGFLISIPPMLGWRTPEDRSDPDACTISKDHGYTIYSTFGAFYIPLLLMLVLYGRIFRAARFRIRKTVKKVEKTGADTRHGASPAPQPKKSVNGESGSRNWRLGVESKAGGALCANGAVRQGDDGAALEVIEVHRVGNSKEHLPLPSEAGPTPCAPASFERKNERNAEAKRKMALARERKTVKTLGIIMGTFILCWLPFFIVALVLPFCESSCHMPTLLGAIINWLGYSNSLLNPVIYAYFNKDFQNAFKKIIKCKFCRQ
Excerpt: Table 1 Binding Affinity Data and Pharmacokinetic Parameters of Test Compounds. | column: 5-HT1AKi [nM]

[3] = Metabolic stability in mouse hepatic microsomes with NADPH-generating system; type: in vitro ADME; conditions: pH 7.4; for half-life at 1 μM: mouse liver microsomes 0.5 mg/mL, 1 μM compound, 37°C; for microsomal CLint at 1 μM: calculated from in vitro half-life, mouse liver microsomes
Method: Metabolic reactions were initiated by the addition of a NADPH regenerating system (NADP, glucose-6-phosphate, glucose-6-phosphate dehydrogenase, final glucose-6-phosphate dehydrogenase concentration, 1 unit/mL). Aliquots were removed (0, 5, 10, 30, and 60 min) and immediately mixed with an equal volume of cold acetonitrile containing internal standard. Test compound incubated with microsomes without NADPH regenerating system for 60 min was included. […] The column used was a Phenomenex Gemini C-18 (250 × 4.6 mm, 5 μm particle size). The samples were isocratically eluted using CH3CN/ammonium formate (20 mM, pH 5.5) 7:3 (v/v) as mobile phase. […] Liver microsomes provide the most convenient way to study cytochrome P450 enzyme-mediated metabolism.

[4] = parameters: method as in Leopoldo et al., 2008; conditions: mice, intraperitoneal injection; ref Leopoldo et al., 2008; cited from earlier work
5-HT7 receptors = 5-HT7 receptors (Homo sapiens, UniProt P34969); test: Radioligand binding affinity for 5-HT7 receptors
5-HT7 receptors, sequence (P34969 whole entry): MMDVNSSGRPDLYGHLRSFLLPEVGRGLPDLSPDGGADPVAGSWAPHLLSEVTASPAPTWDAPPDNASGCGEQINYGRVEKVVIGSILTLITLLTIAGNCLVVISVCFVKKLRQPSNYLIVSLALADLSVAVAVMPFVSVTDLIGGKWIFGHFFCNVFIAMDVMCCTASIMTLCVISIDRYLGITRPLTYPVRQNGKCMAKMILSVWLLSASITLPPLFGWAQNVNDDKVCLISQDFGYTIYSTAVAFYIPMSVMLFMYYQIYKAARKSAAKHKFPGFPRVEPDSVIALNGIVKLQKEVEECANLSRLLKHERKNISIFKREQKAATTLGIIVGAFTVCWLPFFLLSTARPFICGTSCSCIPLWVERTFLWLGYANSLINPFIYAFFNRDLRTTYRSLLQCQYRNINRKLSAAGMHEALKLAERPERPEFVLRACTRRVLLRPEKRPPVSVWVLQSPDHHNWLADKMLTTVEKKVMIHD

P-glycoprotein (P-gp) = molecular target: T2, P-glycoprotein (P-gp) (Homo sapiens, UniProt P08183); test: Efflux ratio (BA/AB) in Caco-2 cells monolayer; type: in vitro ADME; conditions: efflux ratio basal-to-apical / apical-to-basal, Caco-2 monolayer, cutoff 3 for P-gp substrate
T2 construct: fluxes in Caco-2 cells monolayer; endogenous in cells; host or cells: Caco-2 cells
T2 sequence (P08183 whole entry): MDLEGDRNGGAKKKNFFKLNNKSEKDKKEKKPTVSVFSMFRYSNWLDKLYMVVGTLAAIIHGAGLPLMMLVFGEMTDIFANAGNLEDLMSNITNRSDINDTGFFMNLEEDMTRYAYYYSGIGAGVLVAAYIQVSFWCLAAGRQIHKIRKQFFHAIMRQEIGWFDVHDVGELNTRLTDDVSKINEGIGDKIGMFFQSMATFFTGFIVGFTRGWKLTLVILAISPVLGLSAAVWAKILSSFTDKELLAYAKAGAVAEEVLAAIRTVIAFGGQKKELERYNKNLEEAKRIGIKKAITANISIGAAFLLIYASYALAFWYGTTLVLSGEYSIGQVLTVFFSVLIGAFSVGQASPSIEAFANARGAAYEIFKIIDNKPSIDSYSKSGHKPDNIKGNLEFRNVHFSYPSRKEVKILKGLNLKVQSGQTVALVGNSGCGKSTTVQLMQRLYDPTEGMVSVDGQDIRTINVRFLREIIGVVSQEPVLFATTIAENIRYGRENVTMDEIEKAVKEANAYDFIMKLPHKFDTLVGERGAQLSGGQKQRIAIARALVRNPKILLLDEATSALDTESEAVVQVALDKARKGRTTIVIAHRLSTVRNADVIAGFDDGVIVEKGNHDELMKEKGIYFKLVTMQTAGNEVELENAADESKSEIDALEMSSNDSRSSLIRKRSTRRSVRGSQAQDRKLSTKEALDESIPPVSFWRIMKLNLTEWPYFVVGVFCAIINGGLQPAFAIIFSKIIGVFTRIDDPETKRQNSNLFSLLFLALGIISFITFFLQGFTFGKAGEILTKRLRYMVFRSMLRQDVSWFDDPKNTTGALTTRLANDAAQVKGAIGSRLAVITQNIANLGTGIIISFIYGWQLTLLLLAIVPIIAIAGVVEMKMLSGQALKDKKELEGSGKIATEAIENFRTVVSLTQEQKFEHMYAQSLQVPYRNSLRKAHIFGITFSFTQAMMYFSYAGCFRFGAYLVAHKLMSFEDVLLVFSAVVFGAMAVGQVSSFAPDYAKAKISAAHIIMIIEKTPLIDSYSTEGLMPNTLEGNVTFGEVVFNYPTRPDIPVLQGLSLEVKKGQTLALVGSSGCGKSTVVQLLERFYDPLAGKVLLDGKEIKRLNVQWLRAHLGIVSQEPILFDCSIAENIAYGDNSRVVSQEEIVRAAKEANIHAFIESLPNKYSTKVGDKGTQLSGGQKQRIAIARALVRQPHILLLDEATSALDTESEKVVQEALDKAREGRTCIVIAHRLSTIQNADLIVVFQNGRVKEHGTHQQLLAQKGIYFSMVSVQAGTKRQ
Excerpt: This system is an in vitro model to evaluate the interaction of small molecules with P-glycoprotein (P-gp), an efflux pump localized on the blood-brain barrier that prevents xenobiotics to enter the brain. Therefore, a centrally acting drug should not be a P-gp substrate.

[5] = wt FVB slices, applied after DHPG (100 μM, 5 min)

Ki (5-HT1A receptors) | half-life at 1 μM [3] | microsomal CLint at 1 μM [3] | SMILES | EPSC amplitude [1, 5] | further results
 |  |  | c1ccc(-c2ccccc2N2CCNCC2)cc1 [RA-7, 1-(2-biphenyl)piperazine] | 64 ± 7 % of control | 
 |  |  | COc1ccc(-c2ccccc2N2CCNCC2)cc1 [PM-20, 1-[2-(4-methoxyphenyl)phenyl]piperazine] | 60 ± 7 % of control | 
 |  |  | N[C@H](C(=O)O)c1cc(O)cc(O)c1 [DHPG, S-3,5-DHPG] |  | EPSC amplitude after DHPG alone (mGluR-LTD) ([1]; wt C57BL/6J slices, DHPG 100 μM): 74.4 ± 9.8 % of control; EPSC amplitude after DHPG alone (mGluR-LTD) ([2]; DHPG 100 μM, measured 45 min after DHPG): 56 ± 5 % of control and 56 ± 12 % of control
188 nM | 10.6 min | 131 µL/min/mg | N#Cc1ccc(CNC(=O)CCCCCN2CCN(c3ccccc3-c3ccccc3)CC2)cc1 [LP-211, N-(4-cyanophenylmethyl)-4-(2-diphenyl)-1-piperazinehexanamide, reference compound] |  | EPSC amplitude ([1]; wt C57BL/6J slices, applied 5 min after DHPG (100 μM, 5 min)): 99.4 ± 1.5 % of control; EPSC amplitude ([2]; 45 min after DHPG): 78 ± 5 % of control; EPSC amplitude ([2]; 55 min after DHPG): 97 ± 3 % of control; in vivo half-life [4]: 65 min
152 nM | 6.7 min | 205 µL/min/mg | COc1ccc(-c2ccccc2N2CCN(CCCCCC(=O)NCc3ccc(F)nc3)CC2)cc1 [PF-62, N-(2-fluoropyridin-5-ylmethyl)-4-[2-(4-methoxy)phenyl]-1-piperazinehexanamide] |  | Ki (5-HT7 receptors): 3.82 nM; efflux ratio (P-glycoprotein (P-gp)): 4.2
 | 14.8 min | 96 µL/min/mg | COc1ccc(-c2ccccc2N2CCN(C[C@@H](O)COc3cnccn3)CC2)cc1 [BA-10, (R)-1-[4-[2-(4-methoxyphenyl)phenyl]piperazin-1-yl]-3-(2-pyrazinyloxy)-2-propanol] |  | 
